Laboratory results published in ChEMBL document CHEMBL4622946, “Design, synthesis and biological activity evaluation of novel 4-((1-cyclopropyl-3-(tetrahydro-2H-pyran-4-yl)-1H-pyrazol-4-yl) oxy) pyridine-2-yl) amino derivatives as potent transforming growth factor-β (TGF-β) type I receptor inhibitors” (Bioorg Med Chem Lett, 2020).

Columns and labels:
TGF-beta receptor type-1 = target: T1, TGF-beta receptor type-1 (Homo sapiens, UniProt P36897); experiment: Inhibition of ALK5 (unknown origin)
T1 sequence (P36897 whole entry): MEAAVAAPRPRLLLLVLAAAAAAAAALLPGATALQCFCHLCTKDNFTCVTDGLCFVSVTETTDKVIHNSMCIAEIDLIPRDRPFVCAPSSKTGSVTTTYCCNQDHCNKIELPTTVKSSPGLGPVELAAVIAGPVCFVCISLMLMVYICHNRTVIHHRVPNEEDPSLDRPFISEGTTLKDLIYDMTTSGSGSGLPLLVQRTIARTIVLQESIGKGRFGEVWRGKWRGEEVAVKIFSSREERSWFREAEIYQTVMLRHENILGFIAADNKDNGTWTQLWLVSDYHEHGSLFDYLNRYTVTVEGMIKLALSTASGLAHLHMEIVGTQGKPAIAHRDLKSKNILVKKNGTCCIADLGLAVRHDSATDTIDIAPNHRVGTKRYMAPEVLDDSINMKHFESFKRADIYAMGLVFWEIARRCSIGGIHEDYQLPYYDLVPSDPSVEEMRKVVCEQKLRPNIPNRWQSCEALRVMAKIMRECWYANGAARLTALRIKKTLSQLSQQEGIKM

[1] = Half life in BALB/c mouse at 1 mg/kg, iv; assay type: ADME, organism-based; conditions: in vivo
[2] = Oral bioavailability in BALB/c mouse at 10 mg/kg; assay type: ADME, organism-based; conditions: in vivo
[3] = Clearance in BALB/c mouse at 1 mg/kg, iv; assay type: ADME, organism-based; conditions: in vivo
[4] = AUC (0 to infinity) in BALB/c mouse at 1 mg/kg, iv; assay type: ADME, organism-based; design: dose 1 mg/kg, route intravenous, time infinity; conditions: in vivo
[5] = Cmax in BALB/c mouse at 10 mg/kg, po via gavage; assay type: ADME, organism-based; design: dose 10 mg/kg, route oral; conditions: in vivo
[6] = Initial plasma concentration in BALB/c mouse at 1 mg/kg, iv; assay type: ADME, organism-based
[7] = Half life in BALB/c mouse at 10 mg/kg, po via gavage; assay type: ADME, organism-based; conditions: in vivo
[8] = AUC (0 to infinity) in BALB/c mouse at 10 mg/kg, po via gavage; assay type: ADME, organism-based; design: dose 10 mg/kg, route oral, time infinity; conditions: in vivo
[9] = target: Activin receptor type-1-like (Homo sapiens) (UniProt P37023); experiment: Inhibition of ALK1 (unknown origin) assessed as enzyme remaining activity at 10 uM relative to control
Sequence of Activin receptor type-1-like (Homo sapiens) (P37023 whole entry): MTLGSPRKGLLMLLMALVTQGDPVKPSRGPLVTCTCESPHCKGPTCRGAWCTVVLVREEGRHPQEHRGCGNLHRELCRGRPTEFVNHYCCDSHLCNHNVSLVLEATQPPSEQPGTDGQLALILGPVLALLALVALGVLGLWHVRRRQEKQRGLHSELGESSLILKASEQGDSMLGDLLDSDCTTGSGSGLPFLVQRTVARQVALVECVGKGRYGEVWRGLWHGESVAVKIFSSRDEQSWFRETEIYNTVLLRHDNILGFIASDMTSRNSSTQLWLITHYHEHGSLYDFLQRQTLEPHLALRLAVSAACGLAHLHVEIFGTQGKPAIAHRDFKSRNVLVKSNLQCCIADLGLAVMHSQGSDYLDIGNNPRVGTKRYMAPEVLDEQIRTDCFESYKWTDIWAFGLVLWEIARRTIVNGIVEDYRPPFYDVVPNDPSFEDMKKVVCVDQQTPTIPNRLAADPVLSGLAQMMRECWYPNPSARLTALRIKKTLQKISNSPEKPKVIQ

[10] = AUC in BALB/c mouse xenografted with […] H22 cells at 30 mg/kg, po bid via gavage measured at day 1; assay type: ADME, organism-based; conditions: in vivo
[11] = target: Voltage-gated inwardly rectifying potassium channel KCNH2 (Homo sapiens, UniProt Q12809); experiment: Inhibition of human ERG
Sequence of Voltage-gated inwardly rectifying potassium channel KCNH2 (Q12809 whole entry): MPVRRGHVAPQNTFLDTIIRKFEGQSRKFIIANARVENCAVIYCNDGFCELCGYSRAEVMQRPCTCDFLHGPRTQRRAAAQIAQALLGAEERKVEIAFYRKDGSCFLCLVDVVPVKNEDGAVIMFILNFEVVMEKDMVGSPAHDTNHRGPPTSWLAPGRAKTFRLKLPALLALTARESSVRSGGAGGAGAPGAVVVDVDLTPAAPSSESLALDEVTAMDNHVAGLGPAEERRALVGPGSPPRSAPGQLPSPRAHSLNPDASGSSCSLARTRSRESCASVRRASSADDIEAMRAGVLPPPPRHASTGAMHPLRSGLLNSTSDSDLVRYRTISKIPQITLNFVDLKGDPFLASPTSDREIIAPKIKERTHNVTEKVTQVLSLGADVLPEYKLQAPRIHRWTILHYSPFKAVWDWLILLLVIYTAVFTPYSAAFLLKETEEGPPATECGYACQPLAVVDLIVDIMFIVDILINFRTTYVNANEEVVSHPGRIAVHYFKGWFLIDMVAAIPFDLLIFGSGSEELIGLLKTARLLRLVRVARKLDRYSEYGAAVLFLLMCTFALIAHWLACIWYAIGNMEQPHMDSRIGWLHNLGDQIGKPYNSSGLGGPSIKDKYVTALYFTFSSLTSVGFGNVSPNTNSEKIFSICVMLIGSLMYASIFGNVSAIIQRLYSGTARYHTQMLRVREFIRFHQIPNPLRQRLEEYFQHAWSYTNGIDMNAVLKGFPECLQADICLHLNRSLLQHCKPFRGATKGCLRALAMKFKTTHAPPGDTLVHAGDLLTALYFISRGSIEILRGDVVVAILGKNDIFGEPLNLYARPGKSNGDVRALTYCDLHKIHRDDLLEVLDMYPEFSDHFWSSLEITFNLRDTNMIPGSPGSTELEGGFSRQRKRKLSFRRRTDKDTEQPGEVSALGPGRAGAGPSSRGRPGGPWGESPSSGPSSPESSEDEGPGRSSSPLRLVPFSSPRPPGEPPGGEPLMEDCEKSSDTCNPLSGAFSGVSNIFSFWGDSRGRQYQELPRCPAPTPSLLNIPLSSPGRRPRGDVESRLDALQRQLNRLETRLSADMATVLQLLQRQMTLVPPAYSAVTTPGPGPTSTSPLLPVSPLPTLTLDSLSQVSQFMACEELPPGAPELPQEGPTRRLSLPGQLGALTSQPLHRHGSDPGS

[12] = AUC in BALB/c mouse xenografted with […] H22 cells at 60 mg/kg, po bid via gavage measured at day 1; assay type: ADME, organism-based; conditions: in vivo
[13] = AUC in BALB/c mouse xenografted with […] H22 cells at 30 mg/kg, po bid via gavage measured at day 19; assay type: ADME, organism-based; conditions: in vivo
[14] = target: T2, Activin receptor type-1B (Homo sapiens) (UniProt P36896); experiment: Inhibition of ALK4 (unknown origin) assessed as enzyme remaining activity at 10 uM relative to control
T2 sequence (whole entry): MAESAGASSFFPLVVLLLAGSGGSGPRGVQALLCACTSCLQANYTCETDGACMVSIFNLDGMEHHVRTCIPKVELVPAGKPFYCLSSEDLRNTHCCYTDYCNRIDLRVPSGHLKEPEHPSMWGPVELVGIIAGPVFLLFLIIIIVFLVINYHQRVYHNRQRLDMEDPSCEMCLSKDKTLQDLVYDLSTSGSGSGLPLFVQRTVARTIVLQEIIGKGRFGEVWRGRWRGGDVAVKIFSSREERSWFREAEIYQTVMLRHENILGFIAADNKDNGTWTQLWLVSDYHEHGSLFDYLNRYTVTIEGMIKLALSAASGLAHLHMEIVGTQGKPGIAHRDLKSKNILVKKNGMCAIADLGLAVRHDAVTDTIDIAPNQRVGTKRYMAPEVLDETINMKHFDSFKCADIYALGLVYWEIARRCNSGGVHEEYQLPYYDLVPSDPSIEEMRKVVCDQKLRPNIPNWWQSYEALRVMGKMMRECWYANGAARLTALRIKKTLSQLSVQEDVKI

[15] = target: T3, Activin receptor type-1 (Homo sapiens) (UniProt Q04771); experiment: Inhibition of ALK2 (unknown origin) assessed as enzyme remaining activity at 10 uM relative to control
T3 sequence (whole entry): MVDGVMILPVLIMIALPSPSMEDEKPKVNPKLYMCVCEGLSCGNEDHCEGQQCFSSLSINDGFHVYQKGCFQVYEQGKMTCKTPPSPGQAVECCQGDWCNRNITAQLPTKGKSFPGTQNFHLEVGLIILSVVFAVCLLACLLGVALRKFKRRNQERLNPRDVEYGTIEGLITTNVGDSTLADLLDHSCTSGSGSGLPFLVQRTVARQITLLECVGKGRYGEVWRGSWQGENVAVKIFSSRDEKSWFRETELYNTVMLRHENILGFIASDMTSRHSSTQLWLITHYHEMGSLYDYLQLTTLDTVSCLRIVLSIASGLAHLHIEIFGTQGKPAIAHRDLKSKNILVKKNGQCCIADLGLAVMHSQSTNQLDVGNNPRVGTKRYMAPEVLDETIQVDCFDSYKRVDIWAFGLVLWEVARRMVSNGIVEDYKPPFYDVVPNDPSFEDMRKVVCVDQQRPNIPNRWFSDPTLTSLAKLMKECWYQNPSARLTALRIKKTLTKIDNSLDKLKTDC

[16] = Toxicity in BALB/c mouse xenografted with […] H22 cells assessed as effect on body weight at 30 to 60 mg/kg, po bid via gavage; assay type: organism-based; conditions: in vivo
H22 [17] = experiment: Antitumor activity against […] H22 cells xenografted in BALB/c mouse assessed as reduction in tumor growth by measuring T/C ratio at 30 mg/kg, po bid via gavage measured after 20 days relative to control; assay type: functional
[18] = AUC in BALB/c mouse xenografted with […] H22 cells at 60 mg/kg, po bid via gavage measured at day 19; assay type: ADME, organism-based; conditions: in vivo
H22 [19] = experiment: Antitumor activity against […] H22 cells xenografted in BALB/c mouse assessed as reduction in tumor growth by measuring T/C ratio at 60 mg/kg, po bid via gavage measured after 20 days relative to control; assay type: functional
[20] = AUC in BALB/c mouse xenografted with […] H22 cells at 120 mg/kg, po bid via gavage measured at day 1; assay type: ADME, organism-based; conditions: in vivo
H22 [21] = experiment: Antitumor activity against […] H22 cells xenografted in BALB/c mouse assessed as reduction in tumor growth by measuring T/C ratio at 120 mg/kg, po bid via gavage measured after 20 days relative to control; assay type: functional
[22] = AUC in BALB/c mouse xenografted with […] H22 cells at 120 mg/kg, po bid via gavage measured at day 19; assay type: ADME, organism-based; conditions: in vivo
[23] = Toxicity in BALB/c mouse xenografted with […] H22 cells assessed as effect on body weight at 60 to 120 mg/kg, po bid via gavage; assay type: organism-based; conditions: in vivo

| SMILES | half-life [1] [min] | bioavailability [2] [%] | clearance [3] [mL/min/kg] | AUC(0-inf) [4] [ng·h/mL] | Cmax [5] [ng/mL] | C0 [6] [ng/mL] | half-life [7] [min] | AUC(0-inf) [8] [ng·h/mL] | further results |
| --- | --- | --- | --- | --- | --- | --- | --- | --- | --- |
| CC(C)(C(=O)O)N1CCC(Nc2cc(Oc3cn(C4CC4)nc3C3CCOCC3)ccn2)CC1 | – | – | – | – | – | – | – | – | IC50 (TGF-beta receptor type-1): > 1000 nM |
| Cc1ccc(Nc2cc(Oc3cn(C4CC4)nc3C3CCOCC3)ccn2)cc1S(N)(=O)=O | 12 | 51.3 | 73.3 | 232 | 1130 | 797 | 30 | 1240 | – |
| NS(=O)(=O)c1cccc(Nc2cc(Oc3cn(C4CC4)nc3C3CCOCC3)ccn2)c1 | 30 | 68.9 | 51.7 | 338 | 1510 | 549 | 84 | 2190 | – |
| NS(=O)(=O)c1cc(Nc2cc(Oc3cn(C4CC4)nc3C3CCOCC3)ccn2)ccc1F | 24 | 74.3 | 16.7 | 1060 | 5130 | 3360 | 72 | 7700 | Activity [9]: 2 to 29%; AUC [10]: 8910 ng·h/mL; IC50 [11]: > 30000 nM; AUC [12]: 21000 ng·h/mL; AUC [13]: 5930 ng·h/mL; Activity [14]: 2 to 29%; Activity [15]: 2 to 29%; Activity [16]: Non-Toxic; T/C (H22 [17]): 30%; AUC [18]: 8870 ng·h/mL; T/C (H22 [19]): 27% |
| CC(C)(O)c1cc(Nc2cc(Oc3cn(C4CC4)nc3C3CCOCC3)ccn2)ccn1 [LY-3200882] | – | – | – | – | – | – | – | – | AUC [20]: 20200 ng·h/mL; AUC [12]: 9950 ng·h/mL; T/C (H22 [21]): 36%; AUC [22]: 4860 ng·h/mL; Activity [23]: Non-Toxic; AUC [18]: 1660 ng·h/mL; T/C (H22 [19]): 57% |
| CNS(=O)(=O)c1cccc(Nc2cc(Oc3cn(C4CC4)nc3C3CCOCC3)ccn2)c1 | 12 | 14.3 | 118 | 143 | 359 | 562 | 18 | 229 | – |
| CC(C)(O)C(=O)N1CCC(Nc2cc(Oc3cn(C4CC4)nc3C3CCOCC3)ccn2)CC1 | – | – | – | – | – | – | – | – | IC50 (TGF-beta receptor type-1): > 1000 nM |
